Test results published in patent US20230174488A1 (priority 2020, published 2023).

Molecular target: SARS-CoV-2 M^PRO (Severe acute respiratory syndrome coronavirus 2, UniProt P0DTD1)
Assay: biochemical
Assay type: biochemical
Settings: In vitro potency data; 30 min pre-incubation, 25 nM M^pro, 25 µM substrate; read-out: IC50

Q: With `Cc1ccc(CN(C(=O)CCl)C(C(=O)NC2CCCCC2)c2cccnc2)cc1` (stereo not shown) [INSCoV-502] as the compound, how does the IC50 read?
A: 4820 nM

Q: With `Cc1ccccc1CCN(C(=O)CCl)C(C(=O)NC1CCCCC1)c1cccnc1` (stereo not shown) [INSCoV-503A] as the compound, how does the IC50 read?
A: 2630 nM

Q: For `Cc1cccc(CCN(C(=O)CCl)C(C(=O)NC2CCCCC2)c2cccnc2)c1` (stereo not shown) [INSCoV-503B], which IC50 is on record?
A: 1000 nM

Q: With `Cc1ccc(CCN(C(=O)CCl)C(C(=O)NC2CCCCC2)c2cccnc2)cc1` (stereo not shown) [INSCoV-503C] as the compound, how does the IC50 read?
A: 1380 nM

Q: With `O=C(NC1CCCCC1)C(c1cccnc1)N(CCc1ccccc1Cl)C(=O)CCl` (stereo not shown) [INSCoV-503D] as the compound, how does the IC50 read?
A: 2650 nM

Q: With `O=C(NC1CCCCC1)C(c1cccnc1)N(CCc1cccc(Cl)c1)C(=O)CCl` (stereo not shown) [INSCoV-503E] as the compound, how does the IC50 read?
A: 660 nM

Q: `O=C(NC1CCCCC1)C(c1cccnc1)N(CCc1ccc(Cl)cc1)C(=O)CCl` (stereo not shown) [INSCoV-503F] was tested. Which IC50 did it give?
A: 940 nM

Q: `O=C(NC1CCCCC1)C(c1cccnc1)N(CCc1ccccc1F)C(=O)CCl` (stereo not shown) [INSCoV-503G] was tested. Which IC50 did it give?
A: 2300 nM

Q: How did the IC50 turn out when `O=C(NC1CCCCC1)C(c1cccnc1)N(CCc1ccccc1)C(=O)CCl` (stereo not shown) [INSCoV-503] was run?
A: 980 nM

Q: With `O=C(NC1CCCCC1)C(c1cccnc1)N(Cc1ccc(F)cc1)C(=O)CCl` (stereo not shown) [INSCoV-504] as the compound, how does the IC50 read?
A: 16300 nM

Q: For `COc1ccccc1CN(C(=O)CCl)C(C(=O)NC1CCCCC1)c1cccnc1` (stereo not shown) [INSCoV-505], which IC50 is on record?
A: 8650 nM

Q: With `O=C(NC1CCCCC1)C(c1cccnc1)N(C(=O)CCl)c1ccc(Br)cc1F` (stereo not shown) [INSCoV-507] as the compound, how does the IC50 read?
A: 2130 nM

Q: How did the IC50 turn out when `O=C(NC1CCCCC1)C(c1cccnc1)N(CCc1c[nH]c2ccncc12)C(=O)CCl` (stereo not shown) [INSCoV-516] was run?
A: 1180 nM

Q: Which IC50 does the source give for `N#Cc1cc(OC(F)(F)F)ccc1N(C(=O)CCl)[C@@H](C(=O)NC1CCCCC1)c1cccnc1` [INSCoV-517(1)] here?
A: 80 nM

Q: `N#Cc1cc(OC(F)(F)F)ccc1N(C(=O)CCl)[C@H](C(=O)NC1CCCCC1)c1cccnc1` [INSCoV-517(2)] was tested. Which IC50 did it give?
A: 1940 nM

Q: With `N#Cc1cc(OC(F)(F)F)ccc1N(C(=O)CCl)C(C(=O)NC1CCC(F)(F)CC1)c1cnccn1` (stereo not shown) [INSCoV-517B] as the compound, how does the IC50 read?
A: 170 nM

Q: With `O=C(NC1CCCCC1)C(c1cccnc1)N(C(=O)CCl)c1ccc(N2CCCC2)cc1` (stereo not shown) [INSCoV-523] as the compound, how does the IC50 read?
A: 980 nM

Q: How did the IC50 turn out when `Cc1ccc(S(=O)(=O)C(C)NC(=O)C(c2cccnc2)N(C(=O)CCl)c2ccc(C(C)(C)C)cc2)cc1` (stereo not shown) [INSCoV-531] was run?
A: 12700 nM

Q: For `CC(C)(C)NC(=O)C(c1cccnc1)N(C(=O)CCl)c1ccc(C(C)(C)C)cc1` (stereo not shown) [INSCoV-534, N-(Tert-Butyl)-2-(N-(4-(Tert-Butyl)Phenyl)-2-Chloroacetamido)-2-(Pyridin-3-yl)Acetamide], which IC50 is on record?
A: 1280 nM

Q: Which IC50 does the source give for `CC(C)(C)c1ccc(N(C(=O)CCl)C(C(=O)NC2CCCCC2)c2cncc(O)c2)cc1` (stereo not shown) [INSCoV-535, N-(4-(Tert-Butyl)Phenyl)-2-Chloro-N-(2-(Cyclohexylamino)-1-(5-Hydroxypyridin-3-yl)-2-Oxoethyl)Acetamide] here?
A: 1040 nM

Q: How did the IC50 turn out when `CC(C)(C)c1ccc(N(C(=O)CCl)C(C(=O)NC2CCCCC2)c2cncnc2)cc1` (stereo not shown) [INSCoV-536, N-(4-(Tert-Butyl)Phenyl)-2-Chloro-N-(2-(Cyclohexylamino)-2-Oxo-1-(Pyrimidin-5-yl)Ethyl)Acetamide] was run?
A: 620 nM

Q: How did the IC50 turn out when `CC(C)(C)c1ccc(N(C(=O)CCl)C(C(=O)NC2CCCCC2)c2ccnnc2)cc1` (stereo not shown) [INSCoV-537, N-(4-(Tert-Butyl)Phenyl)-2-Chloro-N-(2-(Cyclohexylamino)-2-Oxo-1-(Pyridazin-4-yl)Ethyl)Acetamide] was run?
A: 420 nM

Q: For `O=C(NC1CCC(F)(F)CC1)C(c1ccnnc1)N(C(=O)CCl)c1ccc(-c2cnco2)cc1` (stereo not shown) [INSCoV-537I, 2-Chloro-N-(2-((4,4-Difluorocyclohexyl)Amino)-2-Oxo-1-(Pyridazin-4-yl)Ethyl)-N-(4-(Oxazol-5-yl)Phenyl)Acetamide], which IC50 is on record?
A: 270 nM

Q: Which IC50 does the source give for `O=C(NC1CCC(F)(F)CC1)C(c1ccnnc1)N(C(=O)CCl)c1ccc(-c2ccno2)cc1` (stereo not shown) [INSCoV-537K, 2-Chloro-N-(2-((4,4-Difluorocyclohexyl)Amino)-2-Oxo-1-(Pyridazin-4-yl)Ethyl)-N-(4-(Isoxazol-5-yl)Phenyl)Acetamide] here?
A: 360 nM

Q: Which IC50 does the source give for `CC(C)(C)c1ccc(N(C(=O)CCl)C(C(=O)NC2CCCCC2)c2cnccn2)cc1` (stereo not shown) [INSCoV-538, N-(4-(Tert-Butyl)Phenyl)-2-Chloro-N-(2-(Cyclohexylamino)-2-Oxo-1-(Pyrazin-2-yl)Ethyl)Acetamide] here?
A: 280 nM

Q: For `CC(C)(C)c1ccc(N(C(=O)CCl)[C@@](C)(C(=O)NC2CCCCC2)c2cccnc2)cc1` [INSCoV-538A(1)], which IC50 is on record?
A: 230 nM

Q: `CC(C)(C)c1ccc(N(C(=O)CCl)[C@](C)(C(=O)NC2CCCCC2)c2cccnc2)cc1` [INSCoV-538A(2)] was tested. Which IC50 did it give?
A: 9600 nM

Q: Which IC50 does the source give for `CC(C)(C)c1ccc(N(C(=O)CCl)C(C)(C(=O)NC2CCCCC2)c2cccnc2)cc1` (stereo not shown) [INSCoV-538A] here?
A: 900 nM

Q: With `CC(C)(C)c1ccc(N(C(=O)CCl)C(C(=O)NC2CCCCC2)c2cncc(C#N)c2)cc1` (stereo not shown) [INSCoV-539, N-(4-(Tert-Butyl)Phenyl)-2-Chloro-N-(1-(5-Cyanopyridin-3-yl)-2-(Cyclohexylamino)-2-Oxoethyl)Acetamide] as the compound, how does the IC50 read?
A: 800 nM

Q: With `CC(C)(C)c1ccc(N(C(=O)CCl)C(C(=O)NC2CCCCC2)c2c[nH]c3ncccc23)cc1` (stereo not shown) [INSCoV-549] as the compound, how does the IC50 read?
A: 2490 nM

Q: For `O=C(NC1CCCCC1)C(c1cccnc1)N(CCc1cccc(F)c1)C(=O)CCl` (stereo not shown) [INSCoV-558, 2-Chloro-N-(2-(Cyclohexylamino)-2-Oxo-1-(Pyridin-3-yl)Ethyl)-N-(3-Fluorophenethyl)Acetamide], which IC50 is on record?
A: 330 nM

Q: Which IC50 does the source give for `O=C(NC1CCS(=O)(=O)CC1)C(c1cncnc1)N(CCc1cccc(F)c1)C(=O)CCl` (stereo not shown) [INSCoV-558A, 2-Chloro-N-(2-((1,1-Dioxidotetrahydro-2H-Thiopyran-4-yl)Amino)-2-Oxo-1-(Pyrimidin-5-yl)Ethyl)-N-(3-Fluorophenethyl)Acetamide] here?
A: 470 nM

Q: For `O=C(NC1CCCCC1)C(c1cccnc1)N(CCc1ccc(F)cc1)C(=O)CCl` (stereo not shown) [INSCoV-559, 2-Chloro-N-(2-(Cyclohexylamino)-2-Oxo-1-(Pyridin-3-yl)Ethyl)-N-(4-Fluorophenethyl)Acetamide], which IC50 is on record?
A: 1080 nM

Q: Which IC50 does the source give for `COc1ccccc1CCN(C(=O)CCl)C(C(=O)NC1CCCCC1)c1cccnc1` (stereo not shown) [INSCoV-560A, 2-Chloro-N-(2-(Cyclohexylamino)-2-Oxo-1-(Pyridin-3-yl)Ethyl)-N-(2-Methoxyphenethyl)Acetamide] here?
A: 4340 nM

Q: Which IC50 does the source give for `C#CC(=O)N(c1ccc(C(C)(C)C)cc1)C(C(=O)NC1CCCCC1)c1cccnc1` (stereo not shown) [INSCoV-571] here?
A: 6280 nM

Q: Which IC50 does the source give for `O=C(NC1CCCCC1)C(c1cccnc1)N(Cc1cccc(C(F)(F)F)c1)C(=O)CCl` (stereo not shown) [INSCoV-574, 2-Chloro-N-(2-(Cyclohexylamino)-2-Oxo-1-(Pyridin-3-yl)Ethyl)-N-(3-(Trifluoromethyl)Benzyl)Acetamide] here?
A: 1270 nM

Q: `O=C(NC1CCCCC1)C(c1cccnc1)N(Cc1ccccc1C(F)(F)F)C(=O)CCl` (stereo not shown) [INSCoV-574A, 2-Chloro-N-(2-(Cyclohexylamino)-2-Oxo-1-(Pyridin-3-yl)Ethyl)-N-(2-(Trifluoromethyl)Benzyl)Acetamide] was tested. Which IC50 did it give?
A: 4970 nM

Q: With `O=C(NC1CCCCC1)C(c1cccnc1)N(C(=O)CCl)c1ccc2ccoc2c1` (stereo not shown) [INSCoV-576, 2-[Benzofuran-6-yl-(2-chloroacetyl)amino]-N-cyclohexyl-2-(3-pyridyl)acetamide] as the compound, how does the IC50 read?
A: 4670 nM

Q: For `O=C(NC1CCOCC1)C(c1cccnc1)N(C(=O)CCl)c1ccc(-c2cnco2)cc1` (stereo not shown) [INSCoV-600A(1), 2-Chloro-N-(4-(Oxazol-5-yl)Phenyl)-N-(2-Oxo-1-(Pyridin-3-yl)-2-((Tetrahydro-2H-Pyran-4-yl)Amino)Ethyl)Acetamide], which IC50 is on record?
A: 840 nM

Q: Which IC50 does the source give for `O=C(NC1CCOCC1)C(c1cncnc1)N(C(=O)CCl)c1ccc(-c2cnco2)cc1` (stereo not shown) [INSCoV-600A(2), 2-Chloro-N-(4-(Oxazol-5-yl)Phenyl)-N-(2-Oxo-1-(Pyrimidin-5-yl)-2-((Tetrahydro-2H-Pyran-4-yl)Amino)Ethyl)Acetamide] here?
A: 430 nM

Q: How did the IC50 turn out when `O=C(NC1CCOCC1)C(c1cnccn1)N(C(=O)CCl)c1ccc(-c2cnco2)cc1` (stereo not shown) [INSCoV-600A(3), 2-Chloro-N-(4-(Oxazol-5-yl)Phenyl)-N-(2-oxo-1-(Pyrazin-2-yl)-2-((Tetrahydro-2H-Pyran-4-yl)Amino)Ethyl)Acetamide] was run?
A: 410 nM

Q: How did the IC50 turn out when `O=C(NC1CCOCC1)C(c1ccnnc1)N(C(=O)CCl)c1ccc(-c2cnco2)cc1` (stereo not shown) [INSCoV-600A] was run?
A: 540 nM

Q: For `O=C(N[C@H]1CCC(F)(F)C1)C(c1cncnc1)N(C(=O)CCl)c1ccc(-c2cnco2)cc1` (stereo partly shown) [INSCoV-600B(2)], which IC50 is on record?
A: 190 nM

Q: Which IC50 does the source give for `O=C(NC1CCC(F)(F)C1)C(c1cncnc1)N(C(=O)CCl)c1ccc(-c2cnco2)cc1` (stereo not shown) [INSCoV-600B, 2-(N-(2-chloroacetyl)-4-oxazol-5-yl-anilino)-N-(3,3-difluorocyclopentyl)-2-pyrimidin-5-yl-acetamide] here?
A: 290 nM

Q: How did the IC50 turn out when `O=C(N[C@H]1CCOC1)C(c1cncnc1)N(C(=O)CCl)c1ccc(-c2cnco2)cc1` (stereo partly shown) [INSCoV-600C(1)] was run?
A: 270 nM

Q: With `O=C(N[C@H]1CCOC1)[C@@H](c1cncnc1)N(C(=O)CCl)c1ccc(-c2cnco2)cc1` [INSCoV-600C(1A)] as the compound, how does the IC50 read?
A: 340 nM

Q: Which IC50 does the source give for `O=C(N[C@H]1CCOC1)[C@H](c1cncnc1)N(C(=O)CCl)c1ccc(-c2cnco2)cc1` [INSCoV-600C(1B)] here?
A: 310 nM

Q: For `O=C(N[C@@H]1CCOC1)C(c1cncnc1)N(C(=O)CCl)c1ccc(-c2cnco2)cc1` (stereo partly shown) [INSCoV-600C(2)], which IC50 is on record?
A: 200 nM

Q: Which IC50 does the source give for `O=C(N[C@@H]1CCOC1)[C@H](c1cncnc1)N(C(=O)CCl)c1ccc(-c2cnco2)cc1` [INSCoV-600C(2A)] here?
A: 450 nM

Q: For `O=C(N[C@@H]1CCOC1)[C@@H](c1cncnc1)N(C(=O)CCl)c1ccc(-c2cnco2)cc1` [INSCoV-600C(2B)], which IC50 is on record?
A: 160 nM

Q: With `O=C(NC1CCOC1)C(c1cncnc1)N(C(=O)CCl)c1ccc(-c2cnco2)cc1` (stereo not shown) [INSCoV-600C] as the compound, how does the IC50 read?
A: 220 nM

Q: For `O=C(NC1CC(F)(F)C1)C(c1cncnc1)N(C(=O)CCl)c1ccc(-c2cnco2)cc1` (stereo not shown) [INSCoV-600D], which IC50 is on record?
A: 520 nM

Q: For `CC1(NC(=O)C(c2cncnc2)N(C(=O)CCl)c2ccc(-c3cnco3)cc2)COC1` (stereo not shown) [INSCoV-600E, 2-(N-(2-chloroacetyl)-4-oxazol-5-yl-anilino)-N-(3-methyloxetan-3-yl)-2-pyrimidin-5-yl-acetamide], which IC50 is on record?
A: 570 nM

Q: `O=C(NC1CC2(C1)CC(F)(F)C2)C(c1cncnc1)N(C(=O)CCl)c1ccc(-c2cnco2)cc1` (stereo not shown) [INSCoV-600F] was tested. Which IC50 did it give?
A: 530 nM

Q: Which IC50 does the source give for `O=C(NC1CC2(COC2)C1)C(c1cncnc1)N(C(=O)CCl)c1ccc(-c2cnco2)cc1` (stereo not shown) [INSCoV-600G] here?
A: 990 nM
